# Measured values reported in PubChem BioAssay AID1996.
# Settings: buffer; pH 7.4; 200.0 µM
row,Compound,solubility kinetic
1,O=C(Cc1cccc2ccccc12)NCC(=O)Nc1ccccc1F,10.6 µg/mL
2,O=C1CC2C(=O)NCCN2C(=NC(=O)c2ccc(Cl)cc2)N1 (stereo not given),23.5 µg/mL
3,CC(C)(C)C(=O)OCc1nc(-c2ccc(Cl)cc2)cs1,< 0.7 µg/mL
4,Cc1cccc(C(=O)NC(=O)Nc2c(C)cc(C)nc2C)c1,> 44.6 µg/mL
5,CC(=O)NCC1COc2ccccc2O1 (stereo not given),> 31.1 µg/mL
6,Cc1ccccc1NC(=O)NCC1CCN(C(=O)OC(C)(C)C)CC1,> 52.1 µg/mL
7,CC(C)(C)c1ccc(Oc2ccc(NC(=O)c3ccco3)cn2)cc1,< 0.4 µg/mL
8,CC(=O)Nc1ccc2c(c1)ncn2-c1ccccc1,> 37.7 µg/mL
9,O=C(CSc1nccc(=O)[nH]1)NCc1ccco1,> 39.8 µg/mL
10,Cc1cc(=O)[nH]c(N2CCCNCC2)n1,> 31.2 µg/mL
11,Cc1cccc(NC(=O)[C@@H]2CCCN2S(=O)(=O)c2ccc(Cl)cc2)c1,37.9 µg/mL
12,COc1ccc(CNc2nc3ccccc3s2)cc1OC,1.4 µg/mL
13,CCCNC(=O)CSc1nccn1Cc1ccco1,> 41.9 µg/mL
14,CCCCOc1ccc(C2(C)NC(=O)N(C)C2=O)cc1 (stereo not given),> 41.5 µg/mL
15,COc1cc(NS(=O)(=O)c2cc(C(=O)NCCc3ccccn3)ccc2OC)cc(OC)c1,66.4 µg/mL
16,CCOC(=O)NC(=S)Nc1ccc(C(C)(C)C)cc1Br,1.6 µg/mL
17,O=C(NC(=S)Nc1cccnc1)c1ccccc1,36.1 µg/mL
18,CCOc1ccc(N2C(=O)C3CCCN3C2=S)cc1 (stereo not given),> 41.5 µg/mL
19,COc1cc(/C=C/C(=O)OCC(=O)NCCc2ccc(F)cc2)ccc1OC(F)F,4 µg/mL
20,CCN1CCN(CC(=O)c2ccc(C)cc2)CC1,32.4 µg/mL

row,Compound,solubility kinetic
1,CCC1(C)NC(C(=O)O)Cc2c1[nH]c1ccccc21 (stereo not given),> 38.7 µg/mL
2,COc1cc2ccccc2cc1C(=O)Nc1ccc(C)cc1,2.3 µg/mL
3,COc1ccc(NC(=O)C2CCCN(C(=O)Nc3ccc(F)cc3)C2)cc1OC (stereo not given),13.2 µg/mL
4,COC(=O)c1ccc(NC(=O)c2cccnc2)cc1,> 38.4 µg/mL
5,NC(=O)CCSC(=S)N1CCOCC1,> 35.1 µg/mL
6,COc1ccc(NC(=O)C2CCN(C(=O)c3ccco3)CC2)c(OC)c1,44.2 µg/mL
7,Cc1cnc(=O)[nH]c1SCC(=O)Nc1nccs1,31 µg/mL
8,CCn1c(C)c(CS(=O)(=O)c2ccccc2)[nH]c1=O,9.8 µg/mL
9,CSc1ccc(C(=S)N2CCCC2)cc1,29.6 µg/mL
10,O=C1CSC(=S)N1c1ccc(O)cc1,28.1 µg/mL
11,N#CCc1nc2ccc(S(=O)(=O)N3CCOCC3)cc2s1,37.2 µg/mL
12,COC(=O)/C=C1\N/C(=N/c2nc(C)c3cc(OC)ccc3n2)NC1=O,1.4 µg/mL
13,O=C(CSc1ccccn1)Nc1nonc1[N+](=O)[O-],> 42.2 µg/mL
14,C=CCn1c(O)c(/C=C2/C=c3ccccc3=N2)c(=O)[nH]c1=S,1.2 µg/mL
15,CN(C)CCOc1cccc(Br)c1.O=C(O)C(=O)O,44.6 µg/mL
16,Nc1cc(C(F)(F)F)ccc1NCCc1ccccn1,36.8 µg/mL
17,O=C(NN1C(=O)NC2(CCCCC2)C1=O)c1cccs1,> 44 µg/mL
18,O=C(CCC(=O)c1ccccc1)Nc1ccccc1,22.5 µg/mL
19,COc1ccc(OCC(=O)N2CCCC2=O)c([N+](=O)[O-])c1,42.8 µg/mL
20,O=C(O)CC(CC(=O)N1CCOCC1)c1ccccc1 (stereo not given),> 41.6 µg/mL

row,Compound,solubility kinetic
1,CCOC(=O)c1cc2c(ccn2C)n1CC(=O)N1C(C)CCCC1C (stereo not given),> 51.8 µg/mL
2,CC1CCN(C(=O)CCNC(=O)c2ccccc2Cl)CC1,41.1 µg/mL
3,CC(C)/C=C1\CCc2c([nH]c3ccccc23)C1=O,1.5 µg/mL
4,Cc1ccc(OS(=O)(=O)c2ccc(N3C(=O)CCC3=O)cc2)cc1,18.3 µg/mL
5,CCC(CC)COC(=O)C1=C(C)NC(=O)NC1c1ccc(OC)cc1 (stereo not given),3 µg/mL
6,CC(C)CCNC(=O)Cc1csc(-c2ccccc2)n1,41.4 µg/mL
7,Cc1nc2ccc(NC(=O)c3ccc(Br)o3)cc2s1,5.1 µg/mL
8,CN(C(=O)c1ccc(Oc2ccc([N+](=O)[O-])cc2)cc1)C1CCCCC1,1 µg/mL
9,CCc1ccccc1OCC(=O)OCC(=O)N1CC(=O)Nc2ccccc21,35.7 µg/mL
10,c1cnc(N2CCN(c3ccc4ccccc4n3)CC2)nc1,1.3 µg/mL
11,CCc1ccc(NS(=O)(=O)c2ccc3c(c2)oc(=O)n3C)cc1,2.1 µg/mL
12,Cc1ccc(C(CC(=O)NCCCN(C)C)c2ccc(OC(C)C)cc2)cc1 (stereo not given),52.9 µg/mL
13,C[N+]1(C)CCc2cc3c(cc2[C@H]1[C@@H]1OC(=O)c2c1ccc1c2OCO1)OCO3.[I-],> 76.4 µg/mL
14,O=C1NCCSC1c1ccccc1 (stereo not given),> 29 µg/mL
15,COc1cc(OC)c(C(=O)O/N=C(\N)c2ccccc2)cc1OC,45.7 µg/mL
16,O=C(OCC(=O)N1CCCCCC1)c1ccc(F)cc1F,44.4 µg/mL
17,COc1ccc(NS(=O)(=O)c2csc(C(N)=O)c2)cc1,> 46.9 µg/mL
18,CCN(CC)CC(C)OC(=O)c1ccccc1Cl (stereo not given),37.9 µg/mL
19,O=C(Nc1ccccc1)OC1CCCCc2cccnc21 (stereo not given),41.6 µg/mL
20,Nc1ccc(Oc2ncccn2)c(Cl)c1,> 33.2 µg/mL
